Results: article PMC7065771, “Dietary supplementation of recombinant antimicrobial peptide Epinephelus lanceolatus piscidin improves growth performance and immune response in Gallus gallus domesticus” (PLoS ONE, 2020)

What was measured:
[1] = test system: K. oxytoca; test: Inhibition zone assay, flask culture supernatant; type: cell-based, Klebsiella oxytoca; details: flask culture supernatant after 5 days of methanol induction
Experimental: (§1) All assays were performed in triplicate.
Fig 4 Antimicrobial activity of rEP produced in P. pastoris by flask and fermenter methods. (a) rEP concentration in the yeast culture supernatant before and after induction with methanol for 24 h to 120 h in flask culture. […] The marker “-” represents Gram-negative; “+” represents Gram-positive. (b) The antibacterial activity of rEP produced by the fermenter method. Yeast were induced with methanol from 24 h to 120 h in a fermenter.

[2] = test system: Escherichia coli (BCRC 10675); test: Inhibition zone (disk diffusion) assay; type: cell-based; details: then disk diffusion 16 h at 37°C
Experimental: as §1
(§2) The antimicrobial activity of rEP from flask cultures was evaluated by determining its ability to prevent growth of Gram-positive and Gram-negative bacteria with a disk diffusion assay. […] The most susceptible pathogens were R. anatipestifer (CFC27) and R. anatipestifer (CFC437) (Table 3a). Next, we investigated the thermostability of flask-fermented rEP with regard to its toxicity toward S. aureus (BCRC 10780), E. coli (BCRC 10675) and P. aeruginosa (ATCC 19660). Empty vector with no insert in P. pastoris was used as a control. Thermostability was measured by disk diffusion assay after cultures were incubated for 5 min at 40, 60, 80, or 100°C (Table 3b).

[3] = test system: Pseudomonas aeruginosa (ATCC 19660); test: Inhibition zone (disk diffusion) assay; type: cell-based; details: then disk diffusion 16 h at 37°C
Experimental: as §1, §2

[4] = test system: Riemerella anatipestifer (CFC437); test: Inhibition zone (disk diffusion) assay; type: cell-based; details: disk paper 16 h at 37°C, shake-flask supernatant 120 h after induction
Experimental: as §1, §2

[5] = thermostability: flask supernatant incubated 5 min at 40°C
[6] = thermostability: flask supernatant incubated 5 min at 60°C

EFFIFHIIKGLFHAGRMIHGLVNRRRHRHHHHHH [rEP, recombinant His-tagged Epinephelus lanceolatus piscidin from Pichia pastoris, used as crude culture supernatant or spray-dried powder]
Inhibition zone [1]: large inhibition zones | Inhibition zone diameter after heat treatment [2, 5]: 9.0±1.0 mm | Inhibition zone diameter after heat treatment [2, 6]: 9.0±1.0 mm | Inhibition zone diameter after heat treatment ([2]; thermostability: flask supernatant incubated 5 min at 80°C): 8.6±0.5 mm | Inhibition zone diameter after heat treatment [3, 5]: 10.1±0.3 mm | Inhibition zone diameter after heat treatment [3, 6]: 9.5±0.2 mm | Inhibition zone diameter ([4]; first of two values printed): 11 mm | Inhibition zone diameter ([4]; second of two values printed): 13 mm
